Measurements published in patent publication US5475132A, “Antifungal agents based on amides containing a phenyl group” (Rhone-Poulenc Agrochimie, priority 1988, dated 1995).

What follows are molecules tested on Phytophthora citrophthora (assay: Example B3: action on phytopathogenic soil fungi, growth on agar in Petri dishes). Details: 120 h, 30 ppm, agar medium, 22° C., 5 days, read-out: inhibition of the development of the fungus.
Format: cell-based
For `COc1ccc(-c2nc(Oc3ccc(C(F)(F)F)cc3)ncc2C(=O)N2CCOCC2)cc1OC` [Compound 442], the inhibition at 30 ppm was at least 80%. `COc1ccc2c(c1)CC(C(=O)N1CCOCC1)=C2c1ccc(OC)c(OC)c1` [Compound 111, 2-Morpholinocarbonyl-3-(3,,4-dimethoxyphenyl)-6-mehoxyindene] showed an inhibition at 30 ppm of at least 80%. Work on `COc1ccc(-c2nc(-c3ccccc3)ccc2C(=O)N(C)CCO)cc1OC` [Compound 395] yielded an inhibition at 30 ppm of at least 80%. For `C=C(C)c1ccc(C(=O)N(C)CC)c(-c2ccc(OC)c(OC)c2)c1` [Compound 212], the inhibition at 30 ppm was at least 80%. For `COc1ccc(-c2nc(Oc3ccccc3C)ncc2C(=O)N2CCOCC2)cc1OC` [Compound 440], the inhibition at 30 ppm was at least 80%. With `COCCN(C)C(=O)c1ccc(-c2ccc(Br)cc2)nc1-c1ccc(OC)c(OC)c1` [Compound 393] the inhibition at 30 ppm was at least 80%. With `COc1ccc(-c2nc(Oc3ccc(C)cc3)ncc2C(=O)N2CCOCC2)cc1OC` [Compound 433, 4-(3,4-dimethoxyphenyl)-2-(4-methylphenoxy)-5-morpholinocarbonylpyrimidine] the inhibition at 30 ppm was at least 80%. Work on `COc1ccc(-c2nc(SCc3ccccc3)ncc2C(=O)N2CCOCC2)cc1OC` [Compound 434] yielded an inhibition at 30 ppm of at least 80%. `COc1ccc(-c2nc(Oc3ccc(Cl)cc3)ncc2C(=O)N2CCOCC2)cc1OC` [Compound 437] gave an inhibition at 30 ppm of at least 80%. Molecule `COc1ccc(-c2nc(Oc3ccc(Cl)c(C)c3)ncc2C(=O)N2CCOCC2)cc1OC` [Compound 441] has an inhibition at 30 ppm of at least 80%. `CCN(C)C(=O)c1cnc(-c2ccccc2)nc1-c1ccc(OC)c(OC)c1` [Compound 415] was tested, and the inhibition at 30 ppm was at least 80%. In the case of `COc1ccc(-c2cc(C=C(C)C)ccc2C(=O)N2CCOCC2)cc1OC` [Compound 235], the inhibition at 30 ppm is reported as at least 80%. Work on `COc1ccc(-c2nc(-c3ccc(Cl)cc3)ccc2C(=O)N(C)CC#N)cc1OC` [Compound 363] yielded an inhibition at 30 ppm of at least 80%. With `COc1ccc(-c2nc(Sc3ccc(Br)cc3)ncc2C(=O)N2CCOCC2)cc1OC` [Compound 447] the inhibition at 30 ppm was at least 80%. `COc1ccc(-c2cc(-c3ccc(C)cc3)ccc2C(=O)N2CCOCC2)cc1OC` [Compound 203] was tested, and the inhibition at 30 ppm was at least 80%. `COc1ccc(-c2nc(-c3ccsc3)ccc2C(=O)N2CCOCC2)cc1OC` [Compound 3112] was tested, and the inhibition at 30 ppm was at least 80%. `COc1ccc(-c2nc(-c3ccc(Cl)cc3)ccc2C(=O)N2CCCCC2)cc1OC` [Compound 376] showed an inhibition at 30 ppm of at least 80%. `O=C(c1ccc(-c2ccc(F)cc2)cc1-c1ccc2c(c1)OCO2)N1CCOCC1` [Compound 229] gave an inhibition at 30 ppm of at least 80%. `COCCN(C)C(=O)c1c(-c2ccc(OC)c(OC)c2)cc(-c2ccccc2)nc1C` [Compound 507] gave an inhibition at 30 ppm of at least 80%. `COc1ccc(-c2nc(-c3ccc(Br)cc3)ccc2C(=O)N(C)CCO)cc1OC` [Compound 380] showed an inhibition at 30 ppm of at least 80%. `COc1ccc(-c2cc(-c3ccc4c(c3)OCO4)ccc2C(=O)N2CCOCC2)cc1OC` [Compound 239] gave an inhibition at 30 ppm of at least 80%. `COc1ccc(-c2nc(-c3ccc(Br)cc3)ncc2C(=O)N2CCOCC2)cc1OC` [Compound 427] showed an inhibition at 30 ppm of at least 80%. In the case of `COc1ccc(-c2c(C(=O)N3CCCCC3)sc3ccccc23)cc1OC` [Compound 153], the inhibition at 30 ppm is reported as at least 80%. With `COc1ccc(-c2nc(-c3ccccc3Cl)ccc2C(=O)N2CCOCC2)cc1OC` [Compound 392] the inhibition at 30 ppm was at least 80%. `COc1ccc(-c2nc(-c3ccc(Cl)cc3)ccc2C(=O)N(C)CCOC(C)=O)cc1OC` [Compound 397] gave an inhibition at 30 ppm of at least 80%. With `COCCN(C)C(=O)c1ccc(-c2ccccc2)nc1-c1ccc(OC)c(OC)c1` [Compound 354] the inhibition at 30 ppm was at least 80%. `COc1ccc(-c2c(C(=O)N3CCOCC3)sc3c(NC(=O)C(F)(F)F)cccc23)cc1OC` [Compound 131] showed an inhibition at 30 ppm of at least 80%. For `COc1ccc(-c2nc(-c3ccccc3C)ccc2C(=O)N2CCOCC2)cc1OC` [Compound 391], the inhibition at 30 ppm was at least 80%. `COCCN(C)C(=O)c1ccc(-c2ccsc2)nc1-c1ccc(OC)c(OC)c1` [Compound 3117] was tested, and the inhibition at 30 ppm was at least 80%. With `COc1ccc(-c2c(C(=O)N3CCCC(O)C3)sc3ccccc23)cc1OC` (stereo not shown) [Compound 164] the inhibition at 30 ppm was at least 80%. `COc1ccc(-c2nc(N3CCCCC3)ncc2C(=O)N2CCOCC2)cc1OC` [Compound 458] was tested, and the inhibition at 30 ppm was at least 80%. Molecule `COc1ccc(-c2cc(-c3ccc(C)cc3)ccc2C(=O)N(C)C)cc1OC` [Compound 217] has an inhibition at 30 ppm of at least 80%. Molecule `COc1ccc(-c2c(C(=O)N3CCOCC3)sc3c(-c4ccccc4)cccc23)cc1OC` [Compound 126] has an inhibition at 30 ppm of at least 80%. `C=C(C)c1ccc(C(=O)N(C)CCOC)c(-c2ccc(OC)c(OC)c2)c1` [Compound 213] gave an inhibition at 30 ppm of at least 80%. Work on `COCCN(C)C(=O)c1ccc(-c2ccc(Cl)cc2)nc1-c1ccc(OC)c(OC)c1` [Compound 379] yielded an inhibition at 30 ppm of at least 80%. For `CCN(CC)C(=O)c1sc2ccccc2c1-c1ccc(OC)c(OC)c1` [Compound 107, 2-(N,N-Diethylcarboxamide)-3-(3,4-dimethoxyphenyl)benzothiophene], the inhibition at 30 ppm was at least 80%. Molecule `COc1ccc(-c2c(C(=O)N3CCOCC3)sc3ccc(NC(=O)c4ccc(Cl)cc4)cc23)cc1OC` [Compound 102, 2-(4-Morpholinocarbonyl)-5-(4-chlorobenzoylamino)-3-(3,4-dimethoxyphenyl)benzothiophene] has an inhibition at 30 ppm of at least 80%. `CCN(C)C(=O)c1ccc(Br)cc1-c1ccc(OC)c(OC)c1` [Compound 206] showed an inhibition at 30 ppm of at least 80%. For `CCN(C)C(=O)c1ccc(-c2ccc(Cl)cc2)nc1-c1ccc(OC)c(OC)c1` [Compound 347], the inhibition at 30 ppm was at least 80%. `COc1ccc(-c2cc(-c3ccccc3)nc(C)c2C(=O)N2CCOCC2)cc1OC` [Compound 505, N-[4-(3,4-dimethoxyphenyl)-2-methyl-6-phenylnicotinoyl]morpholine] was tested, and the inhibition at 30 ppm was at least 80%. With `CCN(C)C(=O)c1c(-c2ccc(OC)c(OC)c2)cc(-c2ccccc2)nc1C` [Compound 506] the inhibition at 30 ppm was at least 80%. With `O=C(c1ccc(Br)cc1-c1ccc2c(c1)OCO2)N1CCOCC1` [Compound 224] the inhibition at 30 ppm was at least 80%. Work on `COc1ccc(-c2c(C(=O)N3CCCCC3CO)sc3ccccc23)cc1OC` (stereo not shown) [Compound 157] yielded an inhibition at 30 ppm of at least 80%. `COc1ccc(-c2nc(-c3ccc(F)cc3)ccc2C(=O)N2CCOCC2)cc1OC` [Compound 349] showed an inhibition at 30 ppm of at least 80%. `COc1ccc(-c2nc(-c3ccc(Cl)cc3)ccc2C(=O)N2CCC(O)CC2)cc1OC` [Compound 377] was tested, and the inhibition at 30 ppm was at least 80%. Molecule `CCN(C)C(=O)c1sc2ccc(F)cc2c1-c1ccc(OC)c(OC)c1` [Compound 167] has an inhibition at 30 ppm of at least 80%. `COc1ccc(-c2cc(Br)ccc2C(=O)N2CCOCC2)cc1OC` [Compound 222] showed an inhibition at 30 ppm of at least 80%. Molecule `CCN(CC)C(=O)c1ccc(-c2ccsc2)nc1-c1ccc(OC)c(OC)c1` [Compound 3119] has an inhibition at 30 ppm of at least 80%. Work on `COc1ccc(-c2c(C(=O)N3CCOCC3)sc3ccc(Br)cc23)cc1OC` [Compound 114] yielded an inhibition at 30 ppm of at least 80%. Molecule `CCN(C)C(=O)c1ccc(-c2ccc(C)cc2)cc1-c1ccc2c(c1)OCO2` [Compound 230] has an inhibition at 30 ppm of at least 80%. Work on `CCN(C)C(=O)c1ccc(Cl)cc1-c1ccc(OC)c(OC)c1` [Compound 209] yielded an inhibition at 30 ppm of at least 80%. `COCCN(C)C(=O)c1sc2ccccc2c1-c1ccc(OC)c(OC)c1` [Compound 158] gave an inhibition at 30 ppm of at least 80%. Work on `COc1ccc(-c2c(C(=O)N3CCOCC3)sc3ccc([N+](=O)[O-])cc23)cc1OC` [Compound 104, 2-(4-Morpholinocarbonyl)-5-nitro-3-(3,4-dimethoxyphenyl)benzothiophene] yielded an inhibition at 30 ppm of at least 80%. In the case of `C=C(C)c1ccc(C(=O)N2CCOCC2)c(-c2ccc(OC)c(OC)c2)c1` [Compound 236], the inhibition at 30 ppm is reported as at least 80%. `COc1ccc(-c2nc(-c3ccc(F)cc3)c(C)cc2C(=O)N2CCOCC2)cc1OC` [Compound 368] gave an inhibition at 30 ppm of at least 80%. Molecule `COc1ccc(-c2ccc(C(=O)N3CCOCC3)c(-c3ccc(OC)c(OC)c3)c2)cc1OC` [Compound 234] has an inhibition at 30 ppm of at least 80%. For `COc1ccc(-c2cc(-c3ccsc3)ccc2C(=O)N2CCOCC2)cc1OC` [Compound 238], the inhibition at 30 ppm was at least 80%. Work on `COc1ccc(-c2cc(-c3ccc(Cl)cc3)ccc2C(=O)N2CCOCC2)cc1OC` [Compound 237] yielded an inhibition at 30 ppm of at least 80%. In the case of `COc1ccc(-c2nc(-c3cccc4ccccc34)ccc2C(=O)N2CCOCC2)cc1OC` [Compound 3114], the inhibition at 30 ppm is reported as at least 80%. In the case of `C=CCN(C)C(=O)c1ccc(-c2ccc(Cl)cc2)nc1-c1ccc(OC)c(OC)c1` [Compound 386], the inhibition at 30 ppm is reported as at least 80%. For `COc1ccc(-c2c(C(=O)N3CCOCC3)sc3ccc(F)cc23)cc1OC` [Compound 117], the inhibition at 30 ppm was at least 80%. Work on `COc1ccc(-c2cc(Cl)ccc2C(=O)N2CCOCC2)cc1OC` [Compound 208] yielded an inhibition at 30 ppm of at least 80%. With `COc1ccc(-c2cc(-c3ccccc3)ccc2C(=O)N2CCOCC2)cc1OC` [Compound 202] the inhibition at 30 ppm was at least 80%. For `COc1ccc(-c2nc(C(C)(C)C)ccc2C(=O)N2CCOCC2)cc1OC` [Compound 3110], the inhibition at 30 ppm was at least 80%. Work on `COc1ccc(-c2c(C(=O)N3CCOCC3)cc(-c3ccc(Cl)cc3)n2C)cc1OC` [Compound 619] yielded an inhibition at 30 ppm of at least 80%. `COc1ccc(-c2nc(-c3ccc(Br)cc3)ccc2C(=O)N2CCOCC2)cc1OC` [Compound 385] was tested, and the inhibition at 30 ppm was at least 80%. `CCN(C)C(=O)c1ccc(-c2ccccc2)nc1-c1ccc(OC)c(OC)c1` [Compound 369] showed an inhibition at 30 ppm of at least 80%. For `COc1ccc(-c2nc(-c3cccc(C(F)(F)F)c3)ncc2C(=O)O)cc1OC` [Compound 426], the inhibition at 30 ppm was at least 80%. Work on `COc1ccc(-c2nc(-c3ccccc3)ccc2C(=O)N(C)C(C)C)cc1OC` [Compound 360] yielded an inhibition at 30 ppm of at least 80%. `COc1ccc(-c2nc(-c3cccc(C(F)(F)F)c3)ncc2C(=O)N2CCOCC2)cc1OC` [Compound 425] gave an inhibition at 30 ppm of at least 80%. In the case of `COc1ccc(C2=C(C(=O)N3CCOCC3)Cc3cc(OC)c(OC)cc32)cc1OC` [Compound 112, 2-Morpholinocarbonyl-3-(3,4-dimethoxyphenyl)-5,6-methoxyindene], the inhibition at 30 ppm is reported as at least 80%. `COc1ccc(-c2c(C(=O)N3CCOCC3)sc3ccc(NC(=O)C(F)(F)F)cc23)cc1OC` [Compound 116] gave an inhibition at 30 ppm of at least 80%. `COc1ccc(-c2c(C(=O)N3CCOCC3)cnn2-c2ccc(Cl)cc2)cc1OC` [Compound 608, 2-(4-Chlorophenyl)-3-(3,4-dimethoxyphenyl)-4-(morpholinocarbonyl)pyrazole] was tested, and the inhibition at 30 ppm was at least 80%.
